In ChEMBL document CHEMBL1135753, “Characterization of orally active nonpeptide vasopressin V(2) receptor agonist. Synthesis and biological evaluation of both the (5R)- and (5S)-enantioisomers of 2-[1-(2-Chloro-4-pyrrolidin-1-yl-benzoyl)-2,3,4,5-tetrahydro-1H-1-benzazepin- 5-yl]-N-isopropylacetamide” (J Med Chem, 2002):

Key:
Vasopressin V2 receptor [1] = target: Vasopressin V2 receptor (Rattus norvegicus, UniProt Q00788); assay: Binding affinity against Vasopressin V2 receptor was determined in Brattleboro rats
Vasopressin V2 receptor [2] = target: T1, Vasopressin V2 receptor (Homo sapiens, UniProt P30518); assay: Percentage of maximal cAMP accumulation at a concentration of 10e-4 M was done in HeLa cells expressing the human Vasopressin V2 receptor; format: functional, cell-based
Vasopressin V2 receptor [3] = target: T1, Vasopressin V2 receptor; assay: Binding affinity against human Vasopressin V2 receptor expressed in HeLa cells was determined; format: cell-based

T1 sequence (P30518 whole entry): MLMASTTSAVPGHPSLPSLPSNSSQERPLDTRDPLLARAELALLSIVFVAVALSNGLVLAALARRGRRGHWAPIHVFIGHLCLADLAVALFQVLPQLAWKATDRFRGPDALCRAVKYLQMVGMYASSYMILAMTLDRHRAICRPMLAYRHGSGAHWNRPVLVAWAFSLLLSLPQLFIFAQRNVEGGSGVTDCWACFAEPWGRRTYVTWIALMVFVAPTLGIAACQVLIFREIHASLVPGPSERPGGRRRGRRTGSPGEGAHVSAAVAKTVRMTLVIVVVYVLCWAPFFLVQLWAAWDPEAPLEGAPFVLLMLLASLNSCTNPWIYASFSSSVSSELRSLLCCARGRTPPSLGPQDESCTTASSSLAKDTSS
Sequence of Vasopressin V2 receptor (Rattus norvegicus, UniProt Q00788) (Q00788 whole entry): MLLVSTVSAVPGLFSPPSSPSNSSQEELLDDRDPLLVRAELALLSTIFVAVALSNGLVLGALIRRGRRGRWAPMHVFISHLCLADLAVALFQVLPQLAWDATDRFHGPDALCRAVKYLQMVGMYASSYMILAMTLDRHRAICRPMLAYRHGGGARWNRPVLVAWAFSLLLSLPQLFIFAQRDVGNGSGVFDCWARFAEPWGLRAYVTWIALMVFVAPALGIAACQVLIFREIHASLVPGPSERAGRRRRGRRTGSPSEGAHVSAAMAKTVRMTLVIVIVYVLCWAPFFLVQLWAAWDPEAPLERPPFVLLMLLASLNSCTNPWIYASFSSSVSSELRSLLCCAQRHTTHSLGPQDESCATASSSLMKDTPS

IC50 (Vasopressin V2 receptor [1])	Accumulation (Vasopressin V2 receptor [2])	IC50 (Vasopressin V2 receptor [3])	SMILES
390 nM	22%	980 nM	CC(C)NC(=O)C[C@@H]1CCCN(C(=O)c2ccc(N3CCCC3)cc2Cl)c2ccccc21
230 nM		330 nM	CC(C)NC(=O)C[C@H]1CCCN(C(=O)c2ccc(N3CCCC3)cc2Cl)c2ccccc21
